# In US12264159B2, “Functionalized heterocycles as antiviral agents” (Enanta Pharmaceuticals, Inc., priority 2018, dated 2025):
# Tests used:
# [1] = Compound induced cellular toxicity in HepG2 cells, ATPlite 1Step; type: cell-based; settings: human, three days exposure, 50% reduction of total ATP vs no drug controls
# Procedure: At day 3, post seeding cells are treated with ATPlite 1Step according to the manufacturer's instructions.
# HBV in 2.2.15 cells = assay: 2.2.15 cells: viral product in cell lysates quantified via quantitative real time PCR; type: cell-based, hepatitis B virus (HBV); settings: Hepatitis B virus, 120 h, day 5 post treatment, 50% reduction of viral product vs no drug controls, readout (qPCR, HBsAg or HBeAg) not specified for the column
# Procedure: 2.2.15 cells are passaged upon attaining confluency in DMEM/F12 media in the presence of 10% FBS, Penn/Strep, and 250 ug/mL G418. Novel compounds are 5 fold serially diluted in DMSO and added to 96 well plates containing 35,000 cells/well at a 1:200 dilution so that the final concentration of DMSO is 0.5%. On day 5, post treatment cell lysates and supernatants are harvested for analysis.
# Cells are lysed using Agilent Sidestep Lysis buffer, diluted 1:100 and quantified via quantitative real time PCR. Commercially available ELISA kits are used to quantitate the viral proteins HBsAg (Alpco) or HBeAg (US Biological) by following the manufacturer's recommended protocol after diluting samples to match the linear range of their respective assays. Irrespective of readout, compound concentrations that reduce viral product accumulation in the cell lysates or supernatants by 50% relative to no drug controls (EC50) are reported; EC50 ranges are as follows: A<0.1 μM; B 0.2-1 μM; C>1 μM.
Structure (SMILES),CC50 at 3 days [1] [µM],EC50 (HBV in 2.2.15 cells) [µM]
"COc1ncc(-c2cc3n(n2)C[C@@H](C(C)(C)C)n2cc(C(=O)O)c(=O)cc2-3)cn1 [Example 6, (R)-6-(tert-butyl)-2-(2-methoxypyrimidin-5-yl)-10-oxo-5,6-dihydro-10H-pyrazolo[1,5-a]pyrido[2,2-c]pyrazine-12-carboxylic acid]",> 25,< 0.1
"Cc1cccc(-c2c(C3CC3)nn3c2-c2cc(=O)c(C(=O)O)cn2[C@H](C(C)(C)C)C3)c1 [Example 153, (R)-6-(tert-butyl)-2-cyclopropyl-10-oxo-1-(m-tolyl)-5,6-dihydro-10H-pyrazolo[1,5-a]pyrido[2,1-c]pyrazine-9-carboxylic acid]",10 to 25,< 0.1
"CC(C)(C)[C@@H]1Cn2nc(-c3cc(F)c(F)cc3N)cc2-c2cc(=O)c(C(=O)O)cn21 [Example 64, (R)-2-(2-amino-4,5-difluorophenyl)-6-(tert-butyl)-10-oxo-5,6-dihydro-10H-pyrazolo[1,5-a]pyrido[2,2-c]pyrazine-12-carboxylic acid]",> 25,< 0.1
"CC(C)(C)[C@@H]1Cn2nc(-c3cccc(F)c3)cc2-c2cc(=O)c(C(=O)O)cn21 [Example 2, (R)-6-(tert-butyl)-2-(3-fluorophenyl)-10-oxo-5,6-dihydro-10H-pyrazolo[1,5-a]pyrido[2,2-c]pyrazine-12-carboxylic acid]",> 25,< 0.1
"CCOc1c(F)cccc1-c1cc2n(n1)C[C@@H](C(C)(C)C)n1cc(C(=O)O)c(=O)cc1-2 [Example 71, (R)-6-(tert-butyl)-2-(2-ethoxy-3-fluorophenyl)-10-oxo-5,6-dihydro-10H-pyrazolo[1,5-a]pyrido[2,2-c]pyrazine-12-carboxylic acid]",> 25,< 0.1
"CC(C)(C)[C@@H]1Cn2nc(C3CC3)c(-c3ccccc3F)c2-c2cc(=O)c(C(=O)O)cn21 [Example 148, (R)-6-(tert-butyl)-2-cyclopropyl-1-(2-fluorophenyl)-10-oxo-5,6-dihydro-10H-pyrazolo[1,5-a]pyrido[2,1-c]pyrazine-9-carboxylic acid]",> 25,< 0.1
"CC(C)Oc1ccccc1-c1cc2n(n1)C[C@@H](C(C)(C)C)n1cc(C(=O)O)c(=O)cc1-2 [Example 82, (R)-6-(tert-butyl)-2-(2-isopropoxyphenyl)-10-oxo-5,6-dihydro-10H-pyrazolo[1,5-a]pyrido[2,2-c]pyrazine-12-carboxylic acid]",> 25,< 0.1
"CC(C)COc1ccccc1-c1cc2n(n1)C[C@@H](C(C)(C)C)n1cc(C(=O)O)c(=O)cc1-2 [Example 80, (R)-6-(tert-butyl)-2-(2-isobutoxyphenyl)-10-oxo-5,6-dihydro-10H-pyrazolo[1,5-a]pyrido[2,2-c]pyrazine-12-carboxylic acid]",> 25,< 0.1
"CC(C)(C)[C@@H]1Cn2nc(-c3cccc4nsnc34)cc2-c2cc(=O)c(C(=O)O)cn21 [Example 63, (R)-2-(benzo[c][1,2,5]thiadiazol-4-yl)-6-(tert-butyl)-10-oxo-5,6-dihydro-10H-pyrazolo[1,5-a]pyrido[2,2-c]pyrazine-12-carboxylic acid]",> 25,< 0.1
"COc1cccc(-c2c(C3CC3)nn3c2-c2cc(=O)c(C(=O)O)cn2[C@H](C(C)(C)C)C3)c1 [Example 157, (R)-6-(tert-butyl)-2-cyclopropyl-1-(3-methoxyphenyl)-10-oxo-5,6-dihydro-10H-pyrazolo[1,5-a]pyrido[2,1-c]pyrazine-9-carboxylic acid]",> 25,< 0.1
"CC(C)(C)[C@@H]1Cn2nc(-c3ccncc3F)cc2-c2cc(=O)c(C(=O)O)cn21 [Example 41, (R)-6-(tert-butyl)-2-(3-fluoropyridin-4-yl)-10-oxo-5,6-dihydro-10H-pyrazolo[1,5-a]pyrido[2,2-c]pyrazine-12-carboxylic acid]",> 25,< 0.1
"CCOc1ccccc1-c1cc2n(n1)C[C@@H](C(C)(C)C)n1cc(C(=O)O)c(=O)cc1-2 [Example 48, (R)-6-(tert-butyl)-2-(2-ethoxyphenyl)-10-oxo-5,6-dihydro-10H-pyrazolo[1,5-a]pyrido[2,2-c]pyrazine-12-carboxylic acid]",> 25,< 0.1
"COc1cccc(C)c1-c1cc2n(n1)C[C@@H](C(C)(C)C)n1cc(C(=O)O)c(=O)cc1-2 [Example 49, (R)-6-(tert-butyl)-2-(2-methoxy-6-methylphenyl)-10-oxo-5,6-dihydro-10H-pyrazolo[1,5-a]pyrido[2,2-c]pyrazine-12-carboxylic acid]",> 25,0.2 to 1
"Cc1sccc1-c1c(C2CC2)nn2c1-c1cc(=O)c(C(=O)O)cn1[C@H](C(C)(C)C)C2 [Example 160, (R)-6-(tert-butyl)-2-cyclopropyl-1-(2-methylthiophen-3-yl)-10-oxo-5,6-dihydro-10H-pyrazolo[1,5-a]pyrido[2,1-c]pyrazine-9-carboxylic acid]",> 25,< 0.1
"C[C@@H]1Cn2nc(-c3ccccc3F)c(-c3ccccc3F)c2-c2cc(=O)c(C(=O)O)cn21 [Example 206, (R)-1,2-bis(2-fluorophenyl)-6-methyl-10-oxo-5,6-dihydro-10H-pyrazolo[1,5-a]pyrido[2,1-c]pyrazine-9-carboxylic acid]",10 to 25,< 0.1
"CC(C)(C)[C@@H]1Cn2nc(-c3cccc4c3OCC4)cc2-c2cc(=O)c(C(=O)O)cn21 [Example 59, (R)-6-(tert-butyl)-2-(2,3-dihydrobenzofuran-7-yl)-10-oxo-5,6-dihydro-10H-pyrazolo[1,5-a]pyrido[2,2-c]pyrazine-12-carboxylic acid]",> 25,< 0.1
"CC(C)(C)[C@@H]1Cn2nc(-c3c(F)ccc4c3OCO4)cc2-c2cc(=O)c(C(=O)O)cn21 [Example 54, (R)-6-(tert-butyl)-2-(5-fluorobenzo[d][1,3]dioxol-4-yl)-10-oxo-5,6-dihydro-10H-pyrazolo[1,5-a]pyrido[2,2-c]pyrazine-12-carboxylic acid]",> 25,< 0.1
"CC(C)[C@@H]1Cn2nc(C3CC3)c(-c3cccs3)c2-c2cc(=O)c(C(=O)O)cn21 [Example 131, (R)-2-cyclopropyl-6-isopropyl-10-oxo-1-(thiophen-2-yl)-5,6-dihydro-10H-pyrazolo[1,5-a]pyrido[2,1-c]pyrazine-9-carboxylic acid]",> 25,< 0.1
COc1ccccc1-c1cc2n(n1)C[C@@H](C(C)(C)C)n1cc(C(=O)O)c(=O)cc1-2 [Example 12],> 25,< 0.1
"CC(C)(C)[C@@H]1Cn2nc(-c3ccccc3C#N)cc2-c2cc(=O)c(C(=O)O)cn21 [Example 40, (R)-6-(tert-butyl)-2-(2-cyanophenyl)-10-oxo-5,6-dihydro-10H-pyrazolo[1,5-a]pyrido[2,2-c]pyrazine-12-carboxylic acid]",> 25,< 0.1
"COc1cccc(-c2cc3n(n2)C[C@@H](C(C)(C)C)n2cc(C(=O)O)c(=O)cc2-3)c1OC [Example 23, (R)-6-(tert-butyl)-2-(2,3-dimethoxyphenyl)-10-oxo-5,6-dihydro-10H-pyrazolo[1,5-a]pyrido[2,2-c]pyrazine-12-carboxylic acid]",> 25,0.2 to 1
"COc1cccc(-c2cc3n(n2)C[C@@H](C(C)(C)C)n2cc(C(=O)O)c(=O)cc2-3)c1 [Example 11, (R)-6-(tert-butyl)-2-(3-methoxyphenyl)-10-oxo-5,6-dihydro-10H-pyrazolo[1,5-a]pyrido[2,2-c]pyrazine-12-carboxylic acid]",> 25,< 0.1
"CCOc1ccc(F)cc1-c1cc2n(n1)C[C@@H](C(C)(C)C)n1cc(C(=O)O)c(=O)cc1-2 [Example 73, (R)-6-(tert-butyl)-2-(2-ethoxy-5-fluorophenyl)-10-oxo-5,6-dihydro-10H-pyrazolo[1,5-a]pyrido[2,2-c]pyrazine-12-carboxylic acid]",> 25,< 0.1
"CC(C)[C@@H]1Cn2nc(C3CC3)c(-c3cccc(F)c3)c2-c2cc(=O)c(C(=O)O)cn21 [Example 134, (R)-2-cyclopropyl-1-(3-fluorophenyl)-6-isopropyl-10-oxo-5,6-dihydro-10H-pyrazolo[1,5-a]pyrido[2,1-c]pyrazine-9-carboxylic acid]",> 25,< 0.1
"COc1ccc(OC(F)(F)F)c(-c2cc3n(n2)C[C@@H](C(C)(C)C)n2cc(C(=O)O)c(=O)cc2-3)c1 [Example 34, (R)-6-(tert-butyl)-2-(5-methoxy-2-(trifluoromethoxy)phenyl)-10-oxo-5,6-dihydro-10H-pyrazolo[1,5-a]pyrido[2,2-c]pyrazine-12-carboxylic acid]",> 25,< 0.1
"Cc1ccc(-c2cnn3c2-c2cc(=O)c(C(=O)O)cn2[C@H](C(C)(C)C)C3)cc1 [Example 126, (R)-6-(tert-butyl)-10-oxo-1-(p-tolyl)-5,6-dihydro-10H-pyrazolo[1,5-a]pyrido[2,1-c]pyrazine-9-carboxylic acid]",> 25,< 0.1
